From patent publication US6548553B2, “Styryl sulfone anticancer agents” (Temple University-of the Commonwealth System of Higher …, priority 1997, dated 2003)

How the values were obtained:
LnCaP and MCF-7 cells = experiment: Trypan blue exclusion viability assay, Tables 2-4; format: cell-based; settings: 5.0 μM compound, 48 hours; for viability at 5 µM: read-out: % viable LnCaP and MCF-7 cells
Protocol: (§1) The effect of the styryl sulfones on the growth of normal and tumor cells of breast and prostate was examine utilizing four cell lines, NIH3T3, MCF-7, BT-20 and LnCap. NIH/3T3 cells represent normal fibroblasts while LnCap is an androgen-dependent prostate tumor cell line. MCF-7 is an estrogen-responsive breast tumor cell line, while BT-20 is an estrogen-unresponsive breast tumor cell line. MCF-7 and BT-20 were grown in Dulbecco's modified Eagle's medium (DMEM) containing 10% fetal bovine serum supplemented with penicillin and streptomycin. LnCaP were cultured in RPMI with 10% fetal bovine serum containing penicillin and streptomycin. NIH3T3 cells were grown in DMEM containing 10% calf serum supplemented with penicillin and streptomycin. All cell cultures were maintained at 37° C. in a humidified atmosphere of 5% CO2.
Cells were treated with test compound at 2.5 μM or 5.0 μM concentration and cell viability was determined after 48 hours by the Trypan blue exclusion method. The compounds identified in Tables 2, 3 and 4 inhibited cell growth and induced cell death, to varying degrees. The tables list the percent viable LnCap and MCF-7 cells treated with 5.0 μM compound.

[1] = Trypan blue exclusion viability assay, normal fibroblasts; format: cell-based; set-up: viability at 48 h: dose or concentration left out as unconfirmed; settings: mouse, NIH3T3 cells (normal fibroblasts); for viability at 48 h: 48 hours incubation, read-out: viable NIH3T3 cells
Protocol: as §1
(§2) The compounds identified in Tables 2, 3 and 4 inhibited cell growth and induced cell death, to varying degrees. The tables list the percent viable LnCap and MCF-7 cells treated with 5.0 μM compound.
(§3) The percentage of living cells was determined by Trypan blue exclusion. The control cells were treated with DMSO to determine the effect of solvent on cells. […] Under these conditions, only 2-3% of NIH3T3 cells were non-viable at both the concentrations. […] After 48 hours incubation, 60-75% of the LnCaP, BT-20 and MCF-7 cells were dead at […] FRI-20 concentration, whereas more than 90% of NIH3T3 cells were viable (FIG. 2A).

[2] = test system: LnCaP, BT-20 and MCF-7 cells; experiment: Trypan blue exclusion viability/proliferation assay (dose and time course); format: cell-based; settings: 2.5 mM (FIG. 1A) and 5.0 mM (FIG. 1B), 48 hours of treatment
SK-MEL-28 = experiment: GI50 growth inhibition, trypan blue cell count; format: cell-based; settings: Homo sapiens, melanoma, 96 hours after addition
Protocol: (§4) The human carcinoma cell lines listed in Table 5 below were purchased from ATCC and grown in an appropriate growth medium containing 10% fetal bovine serum (FBS) and antibiotics. The cells were plated at a cell density of 1.0×10^5 cells per […] in 6-well dishes. The cells were treated with various concentrations of (E)-fluorostyryl-4-bromobenzylsulfone 24 hours after plating in a total volume of 1 ml of medium using dimethylsulfoxide (DMSO) as a solvent for the compound. Control cells were treated with DMSO alone. The total number of viable cells was determined 96 hours after the addition of the compound by counting the cells in each well using a hemacytometer after trypan blue staining (viable cells exclude the stain). The counts were done in duplicate and the average was graphed in FIG. 8 as a percentage of the non-treated control group.

DU145 = experiment: GI50 growth inhibition, trypan blue cell count; format: cell-based, human; settings: prostate, androgen receptor negative, 96 hours after addition
Protocol: as §4

DLD-1 = experiment: GI50 growth inhibition, trypan blue cell count; format: cell-based, human; settings: cob-rectal, 96 hours after addition
Protocol: as §4

U87 = experiment: GI50 growth inhibition, trypan blue cell count; format: cell-based, human; settings: glioblastoma, 96 hours after addition
Protocol: as §4

MIA-PaCa-2 = experiment: GI50 growth inhibition, trypan blue cell count; format: cell-based, human; settings: pancreatic, 96 hours after addition
Protocol: as §4

BT20 = experiment: GI50 growth inhibition, trypan blue cell count; format: cell-based, human; settings: breast, estrogen receptor negative, 96 hours after addition
Protocol: as §4

H157 = experiment: GI50 growth inhibition, trypan blue cell count; format: cell-based, human; settings: lung, non-small cell, 96 hours after addition
Protocol: as §4

[3] = test system: LnCaP, BT-20 and MCF-7 cells; experiment: Trypan blue exclusion viability/proliferation assay (dose and time course); format: cell-based
Protocol: as §1, §2
as §3, with “NIH3T3, MCF-7, BT-20 and LnCaP cells were treated with FRI-20 dissolved in DMSO to concentrations of 250 nM, 500 nM, 1 μM, 2.5 μM and 5 μM and examined for their proliferation and viability after 48 hours (FIG. 2A). The percentage” for “The percentage”
NIH/3T3, MCF-7, BT-20 and LnCap were treated with FRI-20 at 2.5 μM and the number of viable cells was determined at 12, 24, 48 and 72 hours by Trypan blue exclusion.

LnCaP cells = experiment: Comparison with cisplatin, Trypan blue viability after 72 hours; format: cell-based; settings: LnCaP, 72 hours, Trypan blue exclusion
Protocol: (§5) The killing effect of FR-20 on androgen-sensitive (LnCaP) and androgen insensitive (DU145) prostate tumor cells was compared to the effect of cisplatin (cis-diamminedichloroplatinum II), a widely used anti-prostate cancer agent. The cells were grown as in Example 26. FRI-20 or cisplatin was dissolved in DMSO and added to the cells at various concentrations. Viability was determined after 72 hours by the Trypan blue exclusion method. The concentration of FRI-20 required to completely kill LnCaP and DU145 cells was 2.5 μM and 5.0 μM, respectively. Under identical conditions, complete killing of LnCaP and DU145 cells by cisplatin required 25 μM and 15 μM concentrations, respectively.

DU145 cells = experiment: as above; format: cell-based; settings: DU145, 72 hours, Trypan blue exclusion
Protocol: as §5

O=S(=O)(/C=C/c1ccccc1)c1ccccc1 [Example 1, E-styryl Phenyl Sulfone]
viability at 5 µM (LnCaP and MCF-7 cells): 89%

O=S(=O)(/C=C/c1ccc(Cl)cc1)c1ccccc1 [Example 2, E-4-chlorostyryl Phenyl Sulfone]
viability at 5 µM (LnCaP and MCF-7 cells): 90%

O=S(=O)(/C=C/c1ccc(Cl)cc1Cl)c1ccccc1 [Example 3, E-2,4-dichlorostyryl Phenyl Sulfone]
viability at 5 µM (LnCaP and MCF-7 cells): 88%

O=S(=O)(/C=C/c1ccc(Br)cc1)c1ccccc1 [Example 4, E-4-bromostyryl Phenyl Sulfone]
viability at 5 µM (LnCaP and MCF-7 cells): 68%

O=S(=O)(/C=C/c1ccc(Cl)cc1)c1ccc(Cl)cc1 [Example 5, E-4-chlorostyryl 4-chlorophenyl Sulfone]
viability at 5 µM (LnCaP and MCF-7 cells): 64%

Cc1ccc(/C=C/S(=O)(=O)c2ccc(Cl)cc2)cc1 [Example 6, E-4-methylstyryl 4-chlorophenyl Sulfone]
viability at 5 µM (LnCaP and MCF-7 cells): 92%

COc1ccc(/C=C/S(=O)(=O)c2ccc(Cl)cc2)cc1 [Example 7, E-4-methoxystyryl 4-chlorophenyl Sulfone]
viability at 5 µM (LnCaP and MCF-7 cells): 90%

O=S(=O)(/C=C/c1ccc(Br)cc1)c1ccc(Cl)cc1 [Example 8, E-4-bromostyryl 4-chlorophenyl Sulfone]
viability at 5 µM (LnCaP and MCF-7 cells): 69%

O=S(=O)(/C=C/c1ccccc1Cl)Cc1ccccc1 [Example 9, E-2-chlorostyryl Benzyl Sulfone]
viability at 5 µM (LnCaP and MCF-7 cells): 94%

O=S(=O)(/C=C/c1ccc(Cl)cc1)Cc1ccccc1 [Example 10, E-4-chlorostyryl Benzyl Sulfone]
viability at 5 µM (LnCaP and MCF-7 cells): 87%

O=S(=O)(/C=C/c1ccc(Cl)cc1)Cc1ccc(Cl)cc1 [Example 12, E-4-chlorostyryl 4-chlorobenzyl Sulfone]
viability at 5 µM (LnCaP and MCF-7 cells): 49%
viability at 48 h, 5 µM [1]: > 80%
viability at 48 h [1]: > 80%
inhibition of growth and induction of death of LnCaP, BT-20 and MCF-7 cells [2]: substantially inhibit the growth and induce the death

O=S(=O)(/C=C/c1ccc(F)cc1)Cc1ccc(F)cc1 [Example 13, E-4-fluorostyryl 4-fluorobenzyl Sulfone]
viability at 5 µM (LnCaP and MCF-7 cells): 43%

O=S(=O)(/C=C/c1ccc(F)cc1F)Cc1ccc(F)cc1 [Example 14, E-2,4-difluorostyryl 4-fluorobenzyl Sulfone]
viability at 5 µM (LnCaP and MCF-7 cells): 56%
viability at 48 h, 5 µM [1]: > 80%
viability at 48 h [1]: > 80%
inhibition of growth and induction of death of LnCaP, BT-20 and MCF-7 cells [2]: substantially inhibit the growth and induce the death

O=S(=O)(/C=C/c1ccc(F)cc1)Cc1ccc(Br)cc1 [Example 15, E-4-fluorostyryl 4-bromobenzyl Sulfone]
viability at 5 µM (LnCaP and MCF-7 cells): 7%
GI50 (SK-MEL-28): 1 to 2 µM
viability at 48 h, 5 µM [1]: > 80%
viability at 48 h [1]: > 80%
GI50 (DU145; Homo sapiens, DU-145): 2.5 µM
GI50 (DLD-1; Homo sapiens, DLD-1): < 1 µM
GI50 (U87; Homo sapiens, U-87 MG): 1 to 2 µM
GI50 (MIA-PaCa-2; Homo sapiens, MIA PaCa-2): < 1 µM
GI50 (BT20; Homo sapiens, BT-20): 1 to 2 µM
GI50 (H157; Homo sapiens, NCI-H157): < 1 µM
inhibition of growth and induction of death of LnCaP, BT-20 and MCF-7 cells [2]: substantially inhibit the growth and induce the death

O=S(=O)(/C=C/c1ccc(Br)cc1)Cc1ccc(Br)cc1 [Example 16, E-4-bromostyryl 4-bromobenzyl Sulfone]
viability at 5 µM (LnCaP and MCF-7 cells): 51%

O=S(=O)(/C=C/c1ccc(Br)cc1)Cc1ccc(F)cc1 [Example 17, E-4-bromostyryl 4-fluorobenzyl Sulfone]
viability at 5 µM (LnCaP and MCF-7 cells): 42%
viability at 48 h, 5 µM [1]: > 80%
viability at 48 h [1]: > 80%
inhibition of growth and induction of death of LnCaP, BT-20 and MCF-7 cells [2]: substantially inhibit the growth and induce the death

O=S(=O)(/C=C/c1ccc(Cl)cc1)Cc1ccc(Br)cc1 [Example 18, E-4-chlorostyryl 4-bromobenzyl Sulfone]
viability at 5 µM (LnCaP and MCF-7 cells): 7%
activity (growth inhibition and cell death) [3]: highly active

O=S(=O)(/C=C/c1ccc(Br)cc1)Cc1ccc(Cl)cc1 [Example 19, E-4-bromostyryl 4-chlorobenzyl Sulfone]
viability at 5 µM (LnCaP and MCF-7 cells): 20%
activity (growth inhibition and cell death) [3]: highly active

O=S(=O)(/C=C\c1ccccc1)/C=C/c1ccc(F)cc1 [Example 20, (Z)-styryl-(E)-4-fluorostyryl Sulfone]
viability at 5 µM (LnCaP and MCF-7 cells): 76%

O=S(=O)(/C=C\c1ccccc1)/C=C/c1ccc(Br)cc1 [Example 21, (Z)-styryl-(E)-4-bromostyryl Sulfone]
viability at 5 µM (LnCaP and MCF-7 cells): 68%

O=S(=O)(/C=C\c1ccccc1)/C=C/c1ccc(Cl)cc1 [Example 22, (Z)-styryl-(E)-4-chlorostyryl Sulfone]
viability at 5 µM (LnCaP and MCF-7 cells): 72%

O=C(C(=Cc1ccc(F)cc1)S(=O)(=O)c1ccc(F)cc1)c1ccccc1 [Example 23, 2-[(4-fluorophenyl)sulfonyl]-1-phenyl-3-(4-fluorophenyl)-2-propen-1-one]
viability at 5 µM (LnCaP and MCF-7 cells): 76%

O=C(C(=Cc1ccc(F)cc1)S(=O)(=O)c1ccccc1Cl)c1ccccc1 [Example 24]
% viable LnCaP and MCF-7 cells (LnCaP and MCF-7 cells): 64%

O=C(C(=Cc1ccc(Br)cc1)S(=O)(=O)c1ccccc1Cl)c1ccccc1 [Example 25, 2-[(2-chlorophenyl)sulfonyl]-1-phenyl-3-(4-bromophenyl)-2-propen-1-one]
viability at 5 µM (LnCaP and MCF-7 cells): 72%

O=C(C(=Cc1ccc(Br)cc1)S(=O)(=O)c1ccc(Cl)cc1)c1ccccc1 [Example 26, 2-[(4-chlorophenyl)sulfonyl]-1-phenyl-3-(4-bromophenyl)-2-propen-1-one]
viability at 5 µM (LnCaP and MCF-7 cells): 58%

O=C(C(=Cc1ccc(Br)cc1)S(=O)(=O)c1ccccc1[N+](=O)[O-])c1ccccc1 [Example 27, 2-[(2-nitrophenyl)sulfonyl]-1-phenyl-3-(4-bromophenyl)-2-propen-1-one]
viability at 5 µM (LnCaP and MCF-7 cells): 74%

O=S(=O)(/C=C/c1ccc(F)cc1Cl)Cc1ccc(Cl)cc1 [Example 36, E-(2)-chloro-4-fluorostyryl-4-chlorobenzylsulfone]
GI50 (DU145): 2 µM
GI50 (DLD-1): 0.8 µM
GI50 (U87): 1.8 µM
GI50 (MIA-PaCa-2): 1 µM
GI50 (BT20): 0.9 µM
GI50 (H157): 1.5 µM

N.N.[Cl][Pt][Cl] [cisplatin, cis-diamminedichloroplatinum II, reference compound]
concentration required to completely kill cells (LnCaP cells): 25 µM
concentration required to completely kill cells (DU145 cells): 15 µM
